{"source": "patent US20240327372A1", "about": "“PREPARATION OF PHENE[…] […] STEREOISOMERS THEREOF AND PRECURSORS THEREOF” (priority 2022, published 2024)", "key": {"[1]": {"biological_target": "serotonin transporter (SERT) (Rattus norvegicus (Rat), UniProt P31652)", "test": "Competition radioligand binding, [3H]Citalopram, rat brain membranes", "conditions": "5-HT transporter", "text": "(§1) Rat brain (Sprague Dawley, 200-250 g) synaptosomes were isolated from midbrain and hindbrain for serotonin transporter assays, striatum for dopamine transporter assays, and hippocampus plus overlying occipital cortex for norepinephrine transporter assays. Radioligands used were: [^3H]Citalopram 81.4 Ci/mmol (PerkinElmer NET1039250UC; Lot No. 2960876). [^3H]WIN35428 82.8 Ci/mmol (PerkinElmer NET1033250UC; Lot No. 2891473). [^3H]Nisoxetine 79.2 Ci/mmol (PerkinElmer NET1084250UC; Lot No. 2970324). Non-specific compounds used were: Citalopram (Tocris Bioscience 1427). JHW007 (Tocris Bioscience 4351). Nomifensine (Abcam ab146004). Test Compounds for the study were: racemic methylone HCl; (R)-methylone HCl; (S)-methylone HCl.\n(§2) For membrane preparations, rat brains were dissected, tissue was added to ice-cold lysis buffer (50 mM Tris HCl; 5 mM MgCl2; 5 mM EDTA; protease inhibitor cocktail) and homogenized. The homogenate was centrifuged at 100×g for 2 minutes and the supernatant divided into polypropylene Eppendorf tubes. The supernatants were centrifuged at 17,000×g for 10 minutes at 4° C. to re-pellet the cell lysate. The pellet was resuspended in fresh wash buffer (50 mM Tris-HCl; 5 mM MgCl2; 5 mM EDTA) and centrifuged a third time at 17,000×g for 10 minutes at 4° C. The pellet was resuspended in wash buffer containing 10% sucrose as a cryoprotectant, divided into aliquots (0.3 mL) and stored at −80° C. A sample of the homogenate was analyzed for protein content using the MERCK® BCA assay. On the day of the assay, the membrane preparation was thawed and the pellet resuspended in final assay buffer.\n(§3) Competition binding assays were carried out in 96-well polypropylene plates in a final volume of 250 μL per well. To each well was added 150 μL membranes, 50 μL of test compound, non-specific compound or buffer, and 50 μL radioligand solution in buffer. The plate was incubated at 30° C. for 90 minutes with gentle agitation. The incubation was stopped by vacuum filtration onto presoaked (wash buffer with PEI) GF/C filters using a 96-well FILTERMATE™ harvester, followed by 5 washes with ice-cold wash buffer. Filters were then dried under a warm air stream, sealed in polyethylene, scintillation cocktail added, and the radioactivity counted in a WALLAC® TriLux 1450 MicroBeta counter. For each concentration of drug, non-specific binding was subtracted from total binding to give specific binding. Data was fitted using the non-linear curve fitting routines in PRISM® (Graphpad Software Inc) to determine IC50. Ki was subsequently calculated using the ChengPrusoff equation."}, "[2]": {"biological_target": "dopamine transporter (DAT) (Rattus norvegicus (Rat), UniProt P23977)", "test": "Competition radioligand binding, [3H]WIN35428, rat brain membranes", "conditions": "DA transporter", "text": "as §1, §2, §3"}, "[3]": {"biological_target": "norepinephrine transporter (NET)", "test": "Competition radioligand binding, [3H]Nisoxetine, rat brain membranes", "conditions": "NE transporter", "text": "as §1, §2, §3"}, "SERT [4]": {"biological_target": "T1, SERT (Rattus norvegicus (Rat), UniProt P31652)", "test": "[3H]5-HT uptake inhibition in rat brain synaptosomes", "assay_type": "biochemical", "protocol": "(§4) Materials used were: Neurotransmitters [3H]5-HT (PerkinElmer, NET498001MC) [^3H]Dopamine (PerkinElmer, NET673250UC) [^3H]Norepinephrine (PerkinElmer, NET377250UC); Test Compounds Racemic methylone HCl (Merck, M-140); (R)-methylone HCl (Pisgah Labs); (S)-methylone HCl (Pisgah Labs); Reference Compounds Citalopram (Tocris Bioscience 1427). JHW007 (Tocris Bioscience 4351). Nomifensine (Abcam ab146004).\n(§5) Synaptosomes were prepared from Sprague Dawley (200-250 g) rat brain regions (hippocampus for NE, striatum for DA and midbrain for 5-HT) using standard protocols. Tissues were dissected, added to sucrose buffer (0.32 M), homogenized with a dounce-homogenizer and centrifuged at 100×g to remove cells and debris. Supernatant was collected and centrifuged 17,000×g for 10 minutes at 4° C. to pellet the synaptosomes. The pellet was resuspended in fresh assay buffer.\n(§6) Uptake assays were carried out in 96-well plates in a final volume of 250 μL per well. To each well was added 150 μL synaptosomes, 50 μL test, non-specific compound or buffer alone. The plate was incubated at 30° C. for 30 minutes with gentle agitation. 50 μL radiolabeled neurotransmitter in buffer was then added to each well to initiate the uptake. The plate was incubated at 30° C. for a further 5 minutes with gentle agitation. The incubation was stopped by vacuum filtration onto presoaked GF/C filters using a 96-well FilterMate™ harvester, followed by 3 washes with ice-cold wash buffer. Filters were then dried under a warm air stream, sealed in polyethylene, scintillation cocktail added, and the radioactivity counted in a Wallac® TriLux 1450 MicroBeta counter.\n(§7) For each concentration of drug, non-specific uptake was subtracted from total uptake to give specific uptake. Data was fitted using the non-linear curve fitting routines in Prism® (Graphpad Software Inc) to determine IC50."}, "DAT [5]": {"biological_target": "T2, DAT (Rattus norvegicus (Rat), UniProt P23977)", "test": "[3H]Dopamine uptake inhibition in rat brain synaptosomes", "assay_type": "biochemical", "conditions": "DA", "protocol": "as §4, §5, §6, §7"}, "NET [6]": {"test_system": "NET", "test": "[3H]Norepinephrine uptake inhibition in rat brain synaptosomes", "assay_type": "biochemical", "conditions": "NE", "protocol": "as §4, §5, §6, §7"}, "SERT [7]": {"biological_target": "T1, SERT", "test": "5-HT release study", "assay_type": "biochemical"}, "DAT [8]": {"biological_target": "T2, DAT", "test": "DA release study", "assay_type": "biochemical"}, "NET [9]": {"test_system": "NET", "test": "NE release study", "assay_type": "biochemical"}, "cardiac ion channels": {"test_system": "cardiac ion channels", "test": "In vitro cardiovascular safety screening test (ion channel panel, overall)", "assay_type": "cell-based, human", "conditions": "whole panel", "protocol": "An in vitro cardiovascular safety screening test was run to investigate the effects of racemic methylone and two methylone stereoisomers ((R)-methylone and (S)-methylone) on selected ion channels critically linked to cardiovascular function and activity.\nElectrophysiological assays were conducted to profile three compounds ((R)-methylone, (S)-methylone, or racemic methylone) for activities on the ion channel targets specified below using the Qube electrophysiological platform. Where presented, IC50 values were determined by a non-linear, least squares regression analysis. Reference standards were run as an integral part of each assay to ensure the validity of the results obtained.\nIon Channels tested were Eurofins Panel Part Number: CPROFullQB2DR Voltage-Gated Sodium: HEK-Nav1.5 (Peak), HEK-Nav1.5 (Late, Antagonist) Voltage-Gated Potassium: HEK-Kv4.3/KChIP2, CHO-hERG, CHO-KCNQ1/minK Voltage-Gated Calcium: HEK-Cav1.2 Inward-Rectifying Voltage-Gated Potassium: HEK-Kir2.1."}, "[10]": {"test_system": "rat forced swim test (FST)", "test": "Rat forced swim test (FST)", "assay_type": "in vivo", "conditions": "10 mg/kg, IP", "protocol": "All FST studies are performed and scored by an experimenter blind to treatment group and according to standard protocols. Briefly, rats are placed in a circular plexiglass container filled with water. Water temperature is maintained at 22-25° C. and changed for every animal. Day 1 (Training) consists of a 15 min acclimation trial, and Day 2 (Testing, 24 h later) consists of the 5 min test. A time sampling procedure is employed where animals are observed every 5 seconds for the duration of the test session (60 counts or 5 minutes) and scored for immobility (defined as the failure to struggle), swimming (defined as a circular movement around the tank), or climbing (defined as an upwards escape behavior). Data are expressed as the percent of the testing session (e.g., the number of immobility counts divided by 60). A p-value less than 0.05 indicates statistical significance after typical statistical analyses (e.g., unpaired t-test or ANOVA).\nTo determine that the prodrug and/or enantiomer has an antidepressant-like effect and to compare it to methylone, rats are treated with each compound 30 min prior to testing. Additional tests are run 24, 72, 168 hours post-dose or longer.\nRacemic methylone (10 mg/kg, IP) has a maximal antidepressant-like effect in the rat forced swim test (FST), reducing immobility by nearly 100% compared to vehicle treated controls. To determine whether one enantiomer of methylone could mimic the robust antidepressant-like effect of racemic methylone, rats were treated with a single dose of racemic methylone, (R)-methylone, (S)-methylone (all 10 mg/kg, IP) or vehicle 30 min before testing in the FST. […] Therefore, all of the activity of methylone appears to be driven by the activity of one enantiomer ((S)-methylone)."}, "mouse model of PTSD": {"test_system": "mouse model of PTSD", "conditions": "7.5 mg/kg, 30 minutes prior to extinction training; Young et al. 2015; cited from earlier work"}, "[11]": {"conditions": "self-administration, healthy volunteers; cited from earlier work"}}}
{"smiles": "CNC(C)C(=O)c1ccc2c(c1)OCO2", "note": "(racemic) [Racemic methylone]", "values": [{"measurement": "IC50", "setting": "[1]", "result": 12300, "unit": "nM"}, {"measurement": "Ki", "setting": "[1]; Cheng-Prusoff", "result": 7440, "unit": "nM"}, {"measurement": "IC50", "setting": "[2]", "result": 7110, "unit": "nM"}, {"measurement": "Ki", "setting": "[2]; Cheng-Prusoff", "result": 3530, "unit": "nM"}, {"measurement": "IC50", "setting": "[3]", "result": 3100, "unit": "nM"}, {"measurement": "Ki", "setting": "[3]; Cheng-Prusoff", "result": 1460, "unit": "nM"}, {"measurement": "IC50", "setting": "SERT [4]", "result": 811, "unit": "nM"}, {"measurement": "IC50", "setting": "DAT [5]", "result": 1430, "unit": "nM"}, {"measurement": "IC50", "setting": "NET [6]", "result": 355, "unit": "nM"}, {"measurement": "EC50", "setting": "SERT [7]", "result": 620, "unit": "nM"}, {"measurement": "EC50", "setting": "DAT [8]", "result": 4790, "unit": "nM"}, {"measurement": "EC50", "setting": "NET [9]", "result": 330, "unit": "nM"}, {"measurement": "Effect on the cardiac ion channels tested", "setting": "cardiac ion channels", "result": "do not directly inhibit the activity of cardiac channels"}, {"measurement": "Reduction of immobility compared to vehicle treated controls", "setting": "[10]", "result": "~100", "unit": "%"}]}
{"smiles": "CNC(C)Cc1ccc2c(c1)OCO2", "note": "(stereo not shown) [MDMA, 3,4-methylenedioxymethamphetamine, reference compound]", "values": [{"measurement": "Reduced freezing compared to saline injected controls (extinction recall)", "setting": "mouse model of PTSD", "result": 35, "unit": "%"}, {"measurement": "Systolic and diastolic blood pressure", "setting": "[11]", "result": "significant increase"}]}
